From ChEMBL document CHEMBL1155500, “The metabolites of mangrove endophytic fungus Zh6-B1 from the South China Sea” (2010)

Test: Cytotoxicity against human KV/MDR cells at 100 uM after 48 hrs by MTT assay
Type: functional
Settings: read-out: GI

SMILES	inhibition of growth at 100 µM
C[C@@H]1C[C@H](O)CCCc2cc(O)cc(O)c2C(=O)O1	42.4%
C[C@@H]1C[C@@H](O)CCCc2cc(O)cc(O)c2C(=O)O1	41.6%
